Measured values taken from ChEMBL document CHEMBL3832033, “DailyMed|setid=f21494ed-c5e8-4ddf-b140-ecd68c5c312b | CLARITHROMYCIN EXTENDED RELEASE - clarithromycin tablet, film coated, extended release|Ranbaxy Pharmaceuticals Inc”.
Several values for one entry are separate records, joined by “and”; a condition that tells them apart may be missing. Identical values can stand only once.

Legend:
[1] = (§1) Pharmacokinetic parameters for Clarithromycin evaluated after single oral administration of 1000 or 2 x 500 mg Clarithromycin extended-release tablets to 34 adult volunteers under fasting and feeding conditions.; type: ADME, organism-based; set-up: dose 1000 mg, dose 2 x 500, route oral; conditions: human, in vivo, dosed compound id 21, dosed compound name CLARITHROMYCIN, gender male and female, regimen Single dose, tissue Plasma
Homo sapiens = assay: as §1; type: ADME, organism-based; set-up: dose 1000 mg, dose 2 x 500, route oral; conditions: in vivo, po, dosed compound id 21, dosed compound name CLARITHROMYCIN, gender male and female, regimen Single dose, tissue Plasma

AUC ([1]; po, 1000 mg, dietary status Fasting, read-out: AUC(0-t)): 36600 ng·h/mL
Cmax ([1]; po, 1000 mg, dietary status Fed): 3960 ng/mL
Tmax ([1]; dietary status Fasting, dose 1000 mg, route oral): 11 h
Tmax (Homo sapiens; dietary status Fasting, dose 2 x 500 mg): 9.588 h
AUC(0-t) (Homo sapiens; dietary status Fasting): 37615.9151 ng·h/mL
Tmax (Homo sapiens; dietary status Fed, dose 1000 mg): 6.118 h
Tmax (Homo sapiens; dietary status Fed, dose 2 x 500 mg): 6.235 h
Cmax (Homo sapiens; dietary status Fed): 3478.3286 ng/mL
SMILES: CC[C@H]1OC(=O)[C@H](C)[C@@H](O[C@H]2C[C@@](C)(OC)[C@@H](O)[C@H](C)O2)[C@H](C)[C@@H](O[C@@H]2O[C@H](C)C[C@H](N(C)C)[C@H]2O)[C@](C)(OC)C[C@@H](C)C(=O)[C@H](C)[C@@H](O)[C@]1(C)O [CLARITHROMYCIN]
AUC(0-t) (Homo sapiens; dietary status Fed): 58485.5053 ng·h/mL and 60796.1185 ng·h/mL
